# How the values were obtained:
# SK-MEL-5 = assay: Cytotoxicity against human SK-MEL-5 cells; type: functional
# COLO 205 = assay: Cytotoxicity against human COLO205 cells; type: functional
# [1] = read-out: LC50 (the source's name)
compound,measurement,setting,value
CCCCCCCCCCCCCC(=O)O[C@@H](c1cnco1)c1nc([C@@H](O)C[C@@H](O)[C@@H](O)[C@@H](C)O)co1 [BENGAZOLE A],GI50,SK-MEL-5,1.13 µM
same,TGI,SK-MEL-5,4.83 µM
same,CC50,SK-MEL-5; [1],4.83 µM
same,GI50,COLO 205,0.181 µM
same,TGI,COLO 205,1.5 µM
same,CC50,COLO 205; [1],5.25 µM

# — ChEMBL document CHEMBL1147398, “New structures and bioactivity patterns of bengazole alkaloids from a choristid marine sponge” (1993)
